From US20210317134A1, “UBIQUITIN-SPECIFIC-PROCESSING PROTEASE 7 (USP7) MODULATORS AND USES THEREOF” (RAPT THERAPEUTICS, INC., priority 2019, published 2021) come the findings set out here.

Where only a bound is given, the exact number is not on record here.

Sequence of USP7 (Q93009 whole entry): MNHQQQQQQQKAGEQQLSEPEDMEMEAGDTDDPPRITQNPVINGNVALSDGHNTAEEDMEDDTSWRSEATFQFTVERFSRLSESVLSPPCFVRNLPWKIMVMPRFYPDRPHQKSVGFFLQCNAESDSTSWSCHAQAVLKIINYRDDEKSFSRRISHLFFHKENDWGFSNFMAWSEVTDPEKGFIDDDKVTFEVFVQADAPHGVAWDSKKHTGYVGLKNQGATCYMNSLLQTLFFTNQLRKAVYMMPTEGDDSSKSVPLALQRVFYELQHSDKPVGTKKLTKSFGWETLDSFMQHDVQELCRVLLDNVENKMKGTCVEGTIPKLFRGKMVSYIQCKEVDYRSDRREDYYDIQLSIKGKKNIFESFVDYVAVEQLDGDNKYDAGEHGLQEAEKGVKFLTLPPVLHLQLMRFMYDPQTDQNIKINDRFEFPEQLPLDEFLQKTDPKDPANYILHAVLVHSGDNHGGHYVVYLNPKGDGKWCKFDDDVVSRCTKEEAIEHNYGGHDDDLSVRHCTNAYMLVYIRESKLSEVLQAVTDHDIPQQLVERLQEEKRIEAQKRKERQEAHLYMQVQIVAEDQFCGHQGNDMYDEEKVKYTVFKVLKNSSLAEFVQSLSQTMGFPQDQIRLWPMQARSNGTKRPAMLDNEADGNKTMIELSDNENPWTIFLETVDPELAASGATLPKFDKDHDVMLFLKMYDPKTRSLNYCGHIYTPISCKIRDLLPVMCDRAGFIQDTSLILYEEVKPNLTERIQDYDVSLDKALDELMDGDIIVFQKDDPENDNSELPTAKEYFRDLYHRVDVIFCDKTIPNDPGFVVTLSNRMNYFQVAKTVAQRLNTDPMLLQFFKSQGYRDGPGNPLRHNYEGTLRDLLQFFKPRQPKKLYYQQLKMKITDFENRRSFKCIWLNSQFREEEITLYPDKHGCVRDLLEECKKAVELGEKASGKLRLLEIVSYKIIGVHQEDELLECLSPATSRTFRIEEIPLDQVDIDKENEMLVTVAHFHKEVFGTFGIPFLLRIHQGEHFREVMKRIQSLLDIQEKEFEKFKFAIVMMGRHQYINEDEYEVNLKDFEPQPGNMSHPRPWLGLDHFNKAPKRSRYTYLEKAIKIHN

The experiment concerns the target USP7 (Homo sapiens, UniProt Q93009). Briefly: USP7 inhibitory potency (Table 1). The format is biochemical.
The IC50 is the midpoint of a concentration-inhibition curve. In turn, `OCc1cc2nccc(-c3cc(Cl)cc4c3OC(c3nnn5c3CNCC5)C4)c2s1` (stereo not drawn) [(7-(5-chloro-2-(4,5,6,7-tetrahydro-[1,2,3]triazolo[1,5-a]pyrazin-3-yl)-2,3-dihydrobenzofuran-7-yl)thieno[3,2-b]pyridin-2-yl)methanol] returned a 50% inhibitory concentration (IC50) of 1000 to 10000 nM. For `FC(F)(F)CN1CCc2noc([C@H]3Cc4cc(Cl)cc(-c5ccnc6ccsc56)c4O3)c2C1` [(R)-3-(5-chloro-7-(thieno[3,2-b]pyridin-7-yl)-2,3-dihydrobenzofuran-2-yl)-5-(2,2,2-trifluoroethyl)-4,5,6,7-tetrahydroisoxazolo[4,3-c]pyridine] the value was < 1000 nM; for `Clc1cc2c(c(-c3ccnc4ccnn34)c1)O[C@@H](c1onc3c1CNCC3)C2` [(R)-3-(5-chloro-7-(pyrazolo[1,5-a]pyrimidin-7-yl)-2,3-dihydrobenzofuran-2-yl)-4,5,6,7-tetrahydroisoxazolo[4,3-c]pyridine], < 1000 nM. For `COC(=O)c1ccc2c(-c3cc(Cl)cc4c3OC(C(=O)N3CCNCC3)C4)ccnc2c1` (stereo not drawn) [methyl 4-(5-chloro-2-(piperazine-1-carbonyl)-2,3-dihydrobenzofuran-7-yl)quinoline-7-carboxylate] the value was 10000 to 30000 nM.

`CC1(C(=O)N2CCNCC2)Cc2cc(Cl)cc(-c3ccnc4[nH]ccc34)c2O1` (stereo not drawn) [(5-chloro-2-methyl-7-(1H-pyrrolo[2,3-b]pyridin-4-yl)-2,3-dihydrobenzofuran-2-yl)(piperazin-1-yl)methanone] displayed an IC50 of 1000 to 10000 nM. As for `CC[C@H](O)c1cc2nccc(-c3cc(Cl)cc4c3O[C@@H](c3onc5c3CNCC5)C4)c2s1` [(S)-1-(7-((R)-5-chloro-2-(4,5,6,7-tetrahydroisoxazolo[4,3-c]pyridin-3-yl)-2,3-dihydrobenzofuran-7-yl)thieno[3,2-b]pyridin-2-yl)propan-1-ol], the figure is < 1000 nM. For `CCCC1(CO)Cc2nccc(-c3cc(Cl)cc4c3O[C@@H](C(=O)N3CCNCC3)C4)c2C1` (stereo partly drawn) [((2R)-5-chloro-7-(6-(hydroxymethyl)-6-propyl-6,7-dihydro-5H-cyclopenta[b]pyridin-4-yl)-2,3-dihydrobenzofuran-2-yl)(piperazin-1-yl)methanone] the value was 1000 to 10000 nM; for `Clc1cc2c(c(-c3ccnc4[nH]ccc34)c1)OC(c1n[nH]c3c1CNCC3)C2` (stereo not drawn) [3-(5-chloro-7-(1H-pyrrolo[2,3-b]pyridin-4-yl)-2,3-dihydrobenzofuran-2-yl)-4,5,6,7-tetrahydro-1H-pyrazolo[4,3-c]pyridine], 1000 to 10000 nM. For `O[C@]1(c2cc3nccc(-c4cc(Cl)cc5c4O[C@@H](c4onc6c4CNCC6)C5)c3s2)CCOC1` [(R)-3-(7-((R)-5-chloro-2-(4,5,6,7-tetrahydroisoxazolo[4,3-c]pyridin-3-yl)-2,3-dihydrobenzofuran-7-yl)thieno[3,2-b]pyridin-2-yl)tetrahydrofuran-3-ol] the value was < 1000 nM.

On to `O=C([C@H]1Cc2cc(Cl)cc(-c3ccnc4cc(CO)sc34)c2O1)N1CCNCC1` [(R)-(5-chloro-7-(2-(hydroxymethyl)thieno[3,2-b]pyridin-7-yl)-2,3-dihydrobenzofuran-2-yl)(piperazin-1-yl)methanone], for which the half-maximal inhibitory concentration (IC50) was < 1000 nM.

In the case of `CC(=O)NCc1cc2nccc(-c3cc(Cl)cc4c3O[C@@H](c3onc5c3CNCC5)C4)c2s1` [(R)-N-((7-(5-chloro-2-(4,5,6,7-tetrahydroisoxazolo[4,3-c]pyridin-3-yl)-2,3-dihydrobenzofuran-7-yl)thieno[3,2-b]pyridin-2-yl)methyl)acetamide], the half-maximal inhibitory concentration (IC50) was < 1000 nM. For `O=C([C@H]1Cc2cc(Cl)cc(-c3ccnc4ccsc34)c2O1)N1CCNCC1` [(R)-(5-chloro-7-(thieno[3,2-b]pyridin-7-yl)-2,3-dihydrobenzofuran-2-yl)(piperazin-1-yl)methanone] the value was < 1000 nM; for `CN(C)C1CCN(C(=O)C2Cc3cc(Cl)cc(-c4ccnc5[nH]ccc45)c3O2)CC1` (stereo not drawn) [(5-chloro-7-(1H-pyrrolo[2,3-b]pyridin-4-yl)-2,3-dihydrobenzofuran-2-yl)(4-(dimethylamino)piperidin-1-yl)methanone], 1000 to 10000 nM; for `CCC(O)c1cc2nccc(-c3cc(Cl)cc4c3O[C@@H](c3onc5c3CN(C)CC5)C4)c2s1` (stereo partly drawn) [drawing 1573, 1-(7-((R)-5-chloro-2-(5-methyl-4,5,6,7-tetrahydroisoxazolo[4,3-c]pyridin-3-yl)-2,3-dihydrobenzofuran-7-yl)thieno[3,2-b]pyridin-2-yl)propan-1-ol], < 1000 nM.

`CC(=O)NC(C)c1cc2nccc(-c3cc(Cl)cc4c3O[C@@H](c3c5c(nn3C)CCNC5)C4)c2s1` (stereo partly drawn) [N-(1-(7-((R)-5-chloro-2-(2-methyl-4,5,6,7-tetrahydro-2H-pyrazolo[4,3-c]pyridin-3-yl)-2,3-dihydrobenzofuran-7-yl)thieno[3,2-b]pyridin-2-yl)ethyl)acetamide]: the IC50 is < 1000 nM.

`O=C(C1Cc2cc(Cl)cc(-c3ccnc4cccnc34)c2O1)N1CCNCC1` (stereo not drawn) [(5-chloro-7-(1,5-naphthyridin-4-yl)-2,3-dihydrobenzofuran-2-yl)(piperazin-1-yl)methanone] returned an IC50 of 10000 to 30000 nM. In turn, `CN1CCC(CN2CCN(C(=O)C3Cc4cc(Cl)cc(-c5ccnc6[nH]ccc56)c4O3)CC2)CC1` (stereo not drawn) [(5-chloro-7-(1H-pyrrolo[2,3-b]pyridin-4-yl)-2,3-dihydrobenzofuran-2-yl)(4-((1-methylpiperidin-4-yl)methyl)piperazin-1-yl)methanone] came in with an IC50 of 1000 to 10000 nM. As to `CC(=O)NC(C)(C)c1cc2nccc(-c3cc(Cl)cc4c3O[C@@H](C(=O)N3CCNCC3)C4)c2s1` [(R)-N-(2-(7-(5-chloro-2-(piperazine-1-carbonyl)-2,3-dihydrobenzofuran-7-yl)thieno[3,2-b]pyridin-2-yl)propan-2-yl)acetamide], the IC50 lay within 1000 to 10000 nM. For the compound `O=C([C@H]1Cc2cc(Cl)cc(-c3ccnc4ccsc34)c2O1)N1CCN2CCCC2C1` (stereo partly drawn) [((R)-5-chloro-7-(thieno[3,2-b]pyridin-7-yl)-2,3-dihydrobenzofuran-2-yl)(hexahydropyrrolo[1,2-a]pyrazin-2(1H)-yl)methanone], the half-maximal inhibitory concentration (IC50) is 1000 to 10000 nM. Regarding `O=C([C@H]1Cc2cc(Cl)cc(-c3ccnc4ccoc34)c2O1)N1CCNCC1` [(R)-(5-chloro-7-(furo[3,2-b]pyridin-7-yl)-2,3-dihydrobenzofuran-2-yl)(piperazin-1-yl)methanone], the IC50 was < 1000 nM. As for `O=C(C1Cc2cc(Cl)cc(-c3ccnc4[nH]ccc34)c2O1)N1CCCC(C2CNC2)C1` (stereo not drawn) [(3-(azetidin-3-yl)piperidin-1-yl)(5-chloro-7-(1H-pyrrolo[2,3-b]pyridin-4-yl)-2,3-dihydrobenzofuran-2-yl)methanone], the figure is 10000 to 30000 nM; as for `C[C@@H]1C[C@H](NC(=O)C2Cc3cc(Cl)cc(-c4ccnc5[nH]ccc45)c3O2)CCN1` (stereo partly drawn) [5-chloro-N-((2R,4R)-2-methylpiperidin-4-yl)-7-(1H-pyrrolo[2,3-b]pyridin-4-yl)-2,3-dihydrobenzofuran-2-carboxamide], 1000 to 10000 nM.

Compound `N#Cc1cc2c(c(-c3ccnc4cc(CO)sc34)c1)OC(C(=O)N1CCNCC1)C2` (stereo in doubt) [(R)-7-(2-(hydroxymethyl)thieno[3,2-b]pyridin-7-yl)-2-(piperazine-1-carbonyl)-2,3-dihydrobenzofuran-5-carbonitrile] had an IC50 of 1000 to 10000 nM. As for `CN(C)[C@@H]1CCN(C(=O)[C@H]2Cc3cc(Cl)cc(-c4ccnc5ccsc45)c3O2)C1` [((R)-5-chloro-7-(thieno[3,2-b]pyridin-7-yl)-2,3-dihydrobenzofuran-2-yl)((R)-3-(dimethylamino)pyrrolidin-1-yl)methanone], the figure is < 1000 nM.

For the compound `O=C1OCCN1Cc1cc2nccc(-c3cc(Cl)cc4c3O[C@@H](C(=O)N3CCNCC3)C4)c2s1` [(R)-3-((7-(5-chloro-2-(piperazine-1-carbonyl)-2,3-dihydrobenzofuran-7-yl)thieno[3,2-b]pyridin-2-yl)methyl)oxazolidin-2-one], the concentration for half-maximal inhibition (IC50) is < 1000 nM. As for `CN(C)[C@@H]1CCc2noc([C@H]3Cc4cc(Cl)cc(-c5ccnc6cc(CO)sc56)c4O3)c2C1` [(7-((R)-5-chloro-2-((R)-5-(dimethylamino)-4,5,6,7-tetrahydrobenzo[c]isoxazol-3-yl)-2,3-dihydrobenzofuran-7-yl)thieno[3,2-b]pyridin-2-yl)methanol], the figure is < 1000 nM; as for `CC[C@H](O)c1cc2ncnc(-c3cc(Cl)cc4c3O[C@@H](c3onc5c3CNCC5)C4)c2s1` [(S)-1-(4-((R)-5-chloro-2-(4,5,6,7-tetrahydroisoxazolo[4,3-c]pyridin-3-yl)-2,3-dihydrobenzofuran-7-yl)thieno[3,2-d]pyrimidin-6-yl)propan-1-ol], < 1000 nM. As for `CCC(O)c1cc2nccc(-c3cc(Cl)cc4c3O[C@@H](c3c5c(nn3C)CCNC5)C4)c2s1` (stereo partly drawn) [1-(7-((R)-5-chloro-2-(2-methyl-4,5,6,7-tetrahydro-2H-pyrazolo[4,3-c]pyridin-3-yl)-2,3-dihydrobenzofuran-7-yl)thieno[3,2-b]pyridin-2-yl)propan-1-ol], the figure is < 1000 nM; as for `CCC(O)c1cc2nccc(-c3cc(Cl)cc4c3O[C@@H](c3onc5c3CN(C)CC5)C4)c2s1` (stereo partly drawn) [drawing 1521, 1-(7-((R)-5-chloro-2-(5-methyl-4,5,6,7-tetrahydroisoxazolo[4,3-c]pyridin-3-yl)-2,3-dihydrobenzofuran-7-yl)thieno[3,2-b]pyridin-2-yl)propan-1-ol], < 1000 nM; as for `Cc1cc2c(-c3cc(Cl)cc4c3O[C@@H](c3onc5c3CNCC5)C4)ccnc2cc1C#N` [(R)-4-(5-chloro-2-(4,5,6,7-tetrahydroisoxazolo[4,3-c]pyridin-3-yl)-2,3-dihydrobenzofuran-7-yl)-6-methylquinoline-7-carbonitrile], 1000 to 10000 nM. Compound `C=CCC1(C(=O)N2CCNCC2)Cc2cc(Cl)cc(-c3ccnc4[nH]ccc34)c2O1` (stereo not drawn) [(2-allyl-5-chloro-7-(1H-pyrrolo[2,3-b]pyridin-4-yl)-2,3-dihydrobenzofuran-2-yl)(piperazin-1-yl)methanone] came in with an IC50 of 10000 to 30000 nM. For `C[C@H](O)Cc1cc2c(-c3cc(Cl)cc4c3OC(C(=O)N3CCNCC3)C4)ccnc2[nH]1` (stereo partly drawn) the value was 1000 to 10000 nM; for `CC[C@@H](O)c1cc2nccc(-c3cc(Cl)cc4c3O[C@@H](C(=O)N3CCNCC3)C4)c2s1` [((R)-5-chloro-7-(2-((R)-1-hydroxypropyl)thieno[3,2-b]pyridin-7-yl)-2,3-dihydrobenzofuran-2-yl)(piperazin-1-yl)methanone], < 1000 nM.
